Experimental findings from patent EP0258782A2, “Use of 1-(substituted mercapto-hydroxyethyl)-triazoles in the treatment of illnesses” (BAYER AG, priority 1986, dated 1988) are described below.

In one test the test system is Aspergillus fumigatus. In words: Antimycotic in-vitro activity, serial dilution test (MIC). Format: cell-based. The note with it: Sabouraud's milieu d'epreuve, 28-37 °C, 96 h, inoculum 5 x 10^3 to 10^4 germs/ml, read-out: MHK-Werte in γ/ml Nährmedium, Aspergillus fumigatus. The method, then: (§1) Die in-vitro-Prüfungen wurden im Reihenverdünnungstest mit Keiminokula von durchschnittlich 5 x 10³ bis 10⁴ Keimen/ml Substrat durchgeführt. Als Nähmedium dienten • a) für Dermatophyten und Schimmelpilze: Sabouraud's milieu d'epreuve • b) für Hefen: Fleischextrakt-Traubenzucker-Bouillon.
(§2) Die Bebrütungstemperatur betrug 28 °C bis 37 °C, die Bebrütungsdauer lag bei 24 bis 96 Stunden bei Hefen und 96 Stunden bei Dermatophyten und Schimmelpilzen.

For the next test, the system named is Candida albicans. The description is as above. It counts as cell-based. The note with it: Fleischextrakt-Traubenzucker-Bouillon, 28-37 °C, 24-96 h, inoculum 5 x 10^3 to 10^4 germs/ml, read-out: MHK-Werte in γ/ml Nährmedium, Candida albicans. On the procedure:
as §1, §2

The subject of a further test is Microsporum canis. Described as above. Particulars: Sabouraud's milieu d'epreuve, 28-37 °C, 96 h, inoculum 5 x 10^3 to 10^4 germs/ml, read-out: MHK-Werte in γ/ml Nährmedium, Microsporum canis. It counts as cell-based. On the procedure: as §1, §2
The subject of a further test is Torulopsis glabrata. The description is as above. It counts as cell-based. The note with it: Nakaseomyces glabratus; Fleischextrakt-Traubenzucker-Bouillon; 28-37 °C, 24-96 h; inoculum 5 x 10^3 to 10^4 germs/ml; read-out: MHK-Werte in γ/ml Nährmedium, Torulopsis glabrata. On the procedure:
as §1, §2

The subject of another test is Trichophyton mentagr. The description is as above. The note with it: Sabouraud's milieu d'epreuve, 28-37 °C, 96 h, inoculum 5 x 10^3 to 10^4 germs/ml, read-out: MHK-Werte in γ/ml Nährmedium, Trichophyton mentagr. It counts as cell-based. On the procedure: as §1, §2
The next test concerns Candida-Zellen. The experiment in a line: Antimycotic in-vivo activity (oral) in mouse candidosis. More on the design: species or system Mäuse vom Typ SPF-CF1. On the procedure:
Mäuse vom Typ SPF-CF₁ wurden intravenös mit 1 - 2 x 10⁶ logarithmisch wachsenden Candida-Zellen, die in physiologischer Kochsalzlösung suspendiert werden, infiziert. Eine Stunde vor und sieben Stunden nach der Infektion werden die Tiere mit jeweils 25 - 100 mg/kg Körpergewicht der Präparate oral behandelt.
Unbehandelte Tiere starben 3 bis 6 Tage post infektionem. Die Überlebensrate am 6.Tag post infektionem betrug bei unbehandelten Kontrolltieren etwa 5 %.

For test [1], the system named is Trichophyton mentagrophytes. In words: In-vivo activity (local) in experimental guinea pig trichophytosis. On the set-up: species or system Meerschweinchen der Rasse Pirbright-white. From the text:
Weiße Meerschweinchen der Rasse Pirbright-white wurden auf dem geschorenen, nicht skarifizierten Rücken mit einer Mikro- und Makrokoniden-Suspension von Trichophyton mentagrophytes infiziert.
Die infizierten Tiere wurden beginnend mit dem 3.Tag p.i. 1 x täglich mit einer 0,1 %igen Lösung der erdingungsgemäßen Präparate (in Dimethylsulfoxid : Glycerin = 1 : 4) lokal behandelt.
Bei unbehandelten Tieren entwickelte sich innerhalb von 12 Tagen p.i. das Typische Bild einer Dermatophytose mit Rötung, Schuppung und Haarausfall bis zum totalen Integument-Defekt an der Infektionsstelle.

Values after ≈ are worked out from the molar mass of the structure shown.

Turning to `CCSCC(O)(Cn1cncn1)C(C)(C)Cc1ccc(OC(F)(F)F)cc1` (stereo not drawn) [I-52], the MIC was below 1 µg/mL with Aspergillus fumigatus; below 1 µg/mL in the test on Candida albicans; 2 µg/mL (≈ 4.96 µM) in the test on Microsporum canis; 16 µg/mL (≈ 39.7 µM) in the test on Torulopsis glabrata; below 1 µg/mL in the test with Trichophyton mentagr.. Moreover, in the test on Candida-Zellen (mice infected i.v. with Candida, 25-100 mg/kg oral, 1 h before and 7 h after infection), the “Wirkung (Überlebende am 6. Tag p.i.)” value was “++++ (= gute Wirkung = 80 % Überlebende am 6.Tag.p.i.)”. Further, the “Wirkung compared with (A) and (B)” value in the test on Candida-Zellen (mouse candidosis, oral, statement in words) was “bessere Wirkung”. For the same compound, the “Wirkung (Infektionszeichen)” value in test [1] (0,1 % solution in Dimethylsulfoxid : Glycerin = 1 : 4, local, once daily from day 3 p.i.) is reported as “+++++”. The “Wirkung (in words)” value in test [1] (guinea pig trichophytosis, local, 0,1 % solution, statement in words) is recorded as “sehr gute Wirkung”.
